Experimental data taken from BigSolDB 2.1.

## O=CC(NS(=O)(=O)[O-])C(O)C(O)C(O)CO.[Na+] (stereo unspecified)
In ethanol, 288.15 K
  solubility (mole fraction): 8e-05
In ethanol, 293.15 K
  solubility (mole fraction): 0.00012
In ethanol, 298.15 K
  solubility (mole fraction): 0.00021
In ethanol, 303.15 K
  solubility (mole fraction): 0.00027
In ethanol, 308.15 K
  solubility (mole fraction): 0.00035
In ethanol, 313.15 K
  solubility (mole fraction): 0.00046
In ethanol, 318.15 K
  solubility (mole fraction): 0.00055
In methanol, 288.15 K
  solubility (mole fraction): 0.0004
In methanol, 293.15 K
  solubility (mole fraction): 0.00046
In methanol, 298.15 K
  solubility (mole fraction): 0.00052
In methanol, 303.15 K
  solubility (mole fraction): 0.00058
In methanol, 308.15 K
  solubility (mole fraction): 0.00064
In methanol, 313.15 K
  solubility (mole fraction): 0.0007
In methanol, 318.15 K
  solubility (mole fraction): 0.00076
In water, 288.15 K
  solubility (mole fraction): 0.0315
In water, 293.15 K
  solubility (mole fraction): 0.0345
In water, 298.15 K
  solubility (mole fraction): 0.0388
In water, 303.15 K
  solubility (mole fraction): 0.0444
In water, 308.15 K
  solubility (mole fraction): 0.0514
In water, 313.15 K
  solubility (mole fraction): 0.0601
In water, 318.15 K
  solubility (mole fraction): 0.0727
